Experiments:
[1] = Analysis of TB4 concentration data from human patients administered different dosages of thymosin beta 4; format: in vivo; set-up: key to whether first dose brings TB4 concentration that high: ~: indicates first dose does not bring TB4 concentration that high; *: indicates the most efficient treatment (as determined by total required)
Text: The above formulas were developed by analysis of data from human patients who had been administered different dosages of thymosin beta 4. The frequency of dosing needed between dosages to achieve the desired concentration over time, multiplied by the dosage, gave the total drug administered in a 24-hour period. The dosage that maintained the required concentration with the lowest total drug administered was termed the most efficient. See Exampe I, below.
Based on the data collected, concentrations of TB4 in the body portion follow (especially soon after administration, with a decreasing correlation over time) a power function. An estimation of the concentration of thymosin beta 4 at 1 hour was determined using this model with an average within 10% of the experimental mean for the concentrations tested. The concentrations in the tested patients at 1 hour give an approximate range that can be efficiently maintained because the concentrations at about 1 hour are approximately 15% of the initial concentration (mean 14.7%, median 13.3%). The concentration found in human patients at 5 minutes after initial administration intravenously was defined as the initial concentration, and as Cmax, i.e. the maximum concentration achieved after administration of a dose. For the calculations made in the studies, the range of concentration which is the effective and desired dose was assumed to be 5-25% of this initial concentration (Cmax). In general, intervals between intravenous treatment times of about an hour also are the most reliably efficient in achieving and maintaining a particular concentration. Therefore, in certain embodiments, when calculating dosage using Formula I or Formula II, t may equal about 1. The concentration which is achieved with a particular dosage of thymosin beta 4 at 5 minutes (Cmax) can be found using Formula I by calculating C using the particular dosage (D) and 0.083 hours (5 minutes) as t.
Using Formula II, concentration at 1 hour is (35.6)D. In certain embodiments, the formula gives the concentration with an average error of about 10%, calculated against the experimental mean from in vivo patient data. Formulas I and II where t=1, therefore, provide a reasonable estimation of a concentration that is an acceptable and effective concentration to provide therapeutic treatment.
Treatment regimens to maintain a given dose (data summary): […]

[2] = Thymosin dosage regimens calculated with Formula II; set-up: species or system human
Text: A physician or health care provider may first determine a desired concentration of thymosin beta 4 (or a desired increase in concentration of thymosin beta 4 from an existing level) in a body portion of a live human patient in need of treatment. The physician or health care provider may then calculate the dosage necessary to achieve the desired concentration using the formula: C=(A)D·t^−B (Formula I), or D=C/(A)(t^−B) (Formula IA), wherein C is the predetermined thymosin beta 4 concentration to be provided in ng/mL, D is the dosage of thymosin beta 4 administered in mg, t is the time elapsed after administration of an initial dosage of thymosin beta 4 in hours (t is treated as a constant in this equation), A is about 30 to about 38, and B is about 0.5 to about 1. According to one embodiment, the formula is C=(35.6)D·t^−0.754 (Formula II). Time, t, may be 1, and D may equal C/35.6.
A patient in need of thymosin beta 4 treatment with a concentration of 10,000 ng/mL exogenous thymosin beta 4 is administered thymosin beta 4 according to a dosage schedule wherein D and t are calculated using C=(35.6)D*t[…].
A patient in need of thymosin beta 4 treatment with a concentration of 10,000 ng/mL exogenous thymosin beta 4 with a 1-hour dosing frequency is administered D=C/(A)t^−B=10,000 ng/mL/(35.6)(1^−0.75 h)=281 mg thymosin beta 4. […]

[3] = Concentration > 1000 ng/mL in blood, infusion dosage 42 mg per dose
[4] = Concentration > 1000 ng/mL in blood, infusion dosage 140 mg per dose
[5] = Concentration > 1000 ng/mL in blood, infusion dosage 420 mg per dose
[6] = Concentration > 1000 ng/mL in blood, infusion dosage 1260 mg per dose
[7] = Concentration > 5000 ng/mL in blood, infusion dosage 42 mg per dose
[8] = Concentration > 5000 ng/mL in blood, infusion dosage 140 mg per dose
[9] = Concentration > 5000 ng/mL in blood, infusion dosage 420 mg per dose
[10] = Concentration > 5000 ng/mL in blood, infusion dosage 1260 mg per dose
[11] = Concentration > 10000 ng/mL in blood, infusion dosage 42 mg per dose
[12] = Concentration > 10000 ng/mL in blood, infusion dosage 140 mg per dose
[13] = Concentration > 10000 ng/mL in blood, infusion dosage 420 mg per dose
[14] = Concentration > 10000 ng/mL in blood, infusion dosage 1260 mg per dose
[15] = Concentration > 20000 ng/mL in blood, infusion dosage 140 mg per dose
[16] = Concentration > 20000 ng/mL in blood, infusion dosage 420 mg per dose
[17] = Concentration > 20000 ng/mL in blood, infusion dosage 1260 mg per dose
[18] = Concentration > 40000 ng/mL in blood, infusion dosage 420 mg per dose
[19] = Concentration > 40000 ng/mL in blood, infusion dosage 1260 mg per dose
[20] = human patients, intravenous, initial concentration = 5 minutes after administration (Cmax)

CC[C@H](C)[C@H](NC(=O)[C@H](CCC(=O)O)NC(=O)[C@H](C)NC(=O)[C@H](CCSC)NC(=O)[C@H](CC(=O)O)NC(=O)[C@@H]1CCCN1C(=O)[C@H](CCCCN)NC(=O)[C@H](CC(=O)O)NC(=O)[C@H](CO)NC(C)=O)C(=O)N[C@@H](CCC(=O)O)C(=O)N[C@@H](CCCCN)C(=O)N[C@@H](Cc1ccccc1)C(=O)N[C@@H](CC(=O)O)C(=O)N[C@@H](CCCCN)C(=O)N[C@@H](CO)C(=O)N[C@@H](CCCCN)C(=O)N[C@@H](CC(C)C)C(=O)N[C@@H](CCCCN)C(=O)N[C@@H](CCCCN)C(=O)N[C@H](C(=O)N[C@@H](CCC(=O)O)C(=O)N[C@H](C(=O)N[C@@H](CCC(N)=O)C(=O)N[C@@H](CCC(=O)O)C(=O)N[C@@H](CCCCN)C(=O)N[C@@H](CC(N)=O)C(=O)N1CCC[C@H]1C(=O)N[C@@H](CC(C)C)C(=O)N1CCC[C@H]1C(=O)N[C@@H](CO)C(=O)N[C@@H](CCCCN)C(=O)N[C@@H](CCC(=O)O)C(=O)N[C@H](C(=O)N[C@H](C(=O)N[C@@H](CCC(=O)O)C(=O)N[C@@H](CCC(N)=O)C(=O)N[C@@H](CCC(=O)O)C(=O)N[C@@H](CCCCN)C(=O)N[C@@H](CCC(N)=O)C(=O)N[C@@H](C)C(=O)NCC(=O)N[C@@H](CCC(=O)O)C(=O)N[C@@H](CO)C(=O)O)[C@@H](C)CC)[C@@H](C)O)[C@@H](C)O)[C@@H](C)O [thymosin beta 4, Thymosin beta 4]
A of Formula II C=(A)D·t^−B (concentration at 1 hour is (35.6)D) ([1]; C in ng/mL, D in mg, t in hours, developed by analysis of human patient data): 35.6
Frequency of administration [1, 3]: 2 h
Total TB4 required for 24 hour treatment [1, 3]: 504 mg
Frequency of administration [1, 4]: 3 h
Total TB4 required for 24 hour treatment [1, 4]: 1120 mg
Frequency of administration [1, 5]: 6 h
Total TB4 required for 24 hour treatment [1, 5]: 1680 mg
Frequency of administration [1, 6]: 9 h
Total TB4 required for 24 hour treatment [1, 6]: 3360 mg
Frequency of administration [1, 7]: 0.167 h
Total TB4 required for 24 hour treatment [1, 7]: 6048 mg
Frequency of administration [1, 8]: 1 h
Total TB4 required for 24 hour treatment [1, 8]: 5040 mg
Frequency of administration [1, 9]: 2 h
Total TB4 required for 24 hour treatment [1, 9]: 5040 mg
Frequency of administration [1, 10]: 4 h
Total TB4 required for 24 hour treatment [1, 10]: 7560 mg
Frequency of administration [1, 11]: 0.083 h
Total TB4 required for 24 hour treatment [1, 11]: 12096 mg
Frequency of administration [1, 12]: 0.333 h
Total TB4 required for 24 hour treatment [1, 12]: 10080 mg
Frequency of administration [1, 13]: 1 h
Total TB4 required for 24 hour treatment [1, 13]: 10080 mg
Frequency of administration [1, 14]: 3 h
Total TB4 required for 24 hour treatment [1, 14]: 10080 mg
whether first dose brings TB4 concentration that high ([1]; Concentration > 20000 ng/mL in blood, infusion dosage 42 mg per dose): ~42
Frequency of administration [1, 15]: 0.167 h
Total TB4 required for 24 hour treatment [1, 15]: 20160 mg
Frequency of administration [1, 16]: 0.667 h
Total TB4 required for 24 hour treatment [1, 16]: 15120 mg
Frequency of administration [1, 17]: 2 h
Total TB4 required for 24 hour treatment [1, 17]: 15120 mg
whether first dose brings TB4 concentration that high ([1]; Concentration > 40000 ng/mL in blood, infusion dosage 42 mg per dose): ~42
whether first dose brings TB4 concentration that high ([1]; Concentration > 40000 ng/mL in blood, infusion dosage 140 mg per dose): ~140
Frequency of administration [1, 18]: 0.167 h
Total TB4 required for 24 hour treatment [1, 18]: 60480 mg
Frequency of administration [1, 19]: 1 h
Total TB4 required for 24 hour treatment [1, 19]: 30240 mg
average concentration at 1 hour after administration, % of Cmax (SD) ([1]; human patients, experimental data, Cmax = 5-minute concentration): 15.7%±1.32%
concentration at about 1 hour as % of the initial concentration, mean [1, 20]: 14.7%
concentration at about 1 hour as % of the initial concentration, median [1, 20]: 13.3%
concentration at about 1 hour as % of the initial concentration ([1]; human patients, intravenous, initial concentration = 5 minutes after administration (Cmax), approximate): approximately 15%
Cmax ([1]; human, in vivo, intravenous, 6 mg/kg to 18 mg/kg dosing (420 mg and 1260 mg unit dose, respectively), read-out: Cmax levels): 90 to 350 µg/mL
time t between dosage forms calculated for the desired concentration ([2]; 10,000 ng/mL exogenous thymosin beta 4, 200 mg unit dosage forms): 0.637 h
dosage D calculated for the desired concentration ([2]; 10,000 ng/mL exogenous thymosin beta 4, 1-hour dosing frequency): 281 mg

From patent US9504730B2, “Method of achieving a thymosin beta 4 concentration in a human patient” (REGENERX BIOPHARMACEUTICALS, INC., priority 2010, dated 2016)
